Results taken from article PMC8951032, “Study of Biological Activities and ADMET-Related Properties of Novel Chlorinated N-arylcinnamamides” (International Journal of Molecular Sciences, 2022).
≈ marks a conversion by molar mass, not a printed value. Like-named read-outs stand apart in the source and are kept apart here.

Tests used:
[1] = test system: methicillin-resistant S. aureus (MRSA) 63718; assay: In vitro antistaphylococcal activity, microtitration broth MIC; format: cell-based; settings: Staphylococcus aureus
[2] = test system: S. aureus, MRSA, E. faecalis, VRE, M. smegmatis, M. marinum; assay: In vitro antimicrobial screening, all tested strains; format: cell-based; settings: antibacterial/antimycobacterial screening
[3] = test system: methicillin-resistant S. aureus SA 630; assay: In vitro antistaphylococcal activity, microtitration broth MIC; format: cell-based; settings: Staphylococcus aureus
[4] = test system: Staphylococcus aureus ATCC 29213; assay: as above; format: cell-based; settings: for MIC: Staphylococcus aureus
[5] = test system: vancomycin-resistant E. faecalis (VRE) 342B; assay: In vitro antienterococcal activity, microtitration broth MIC; format: cell-based, Enterococcus faecalis; settings: 24 h
[6] = test system: human monocytic leukemia cell line THP-1; assay: In vitro cell viability, CCK-8; format: cell-based; settings: Homo sapiens, THP-1
Description: (§1) The effect of the compounds on viability of eukaryotic cells was evaluated on human leukemia cell line THP-1, human synovial cell line SW982, and isolated primary porcine monocytes-delivered macrophages (MDM). The general cytotoxic effect was studied on THP-1 cells in the serum-free medium (only THP-1 as the only cells used in this study are able to survive in serum-free medium). Most of the compounds had no cytotoxic effect on THP-1 cells. […] This could be caused by the direct interaction of such compounds with serum proteins or by the effect of mitogens, cytokines, and hormones present in the serum. Obviously, the full medium is closer to physiological conditions in living organisms, so it can be assumed that these compounds could be non-toxic there.
(§2) Human monocytic leukemia cell line THP-1 and human synovial cell line SW982 were purchased from the European Collection of Cell Cultures (ECACC, Salisbury, UK) and were used for determination of the influence of test compounds on cell viability, as described previously. These cell lines represent typical suspension and adherent cells, respectively. They were cultivated with test substances in the presence or absence of fetal bovine serum (FBS) in the cultivation medium, and the relative cell viability (the ratio between cells treated with compounds and cells treated only with DMSO) was determined by CCK-8 kit (Sigma) after 24 h.

[7] = test system: human synovial cell line SW982; assay: In vitro cell viability, CCK-8; format: cell-based; settings: 10% fetal bovine serum
Description: as §1, §2

[8] = test system: methicillin-resistant S. aureus SA 3202; assay: In vitro antistaphylococcal activity, microtitration broth MIC; format: cell-based; settings: Staphylococcus aureus
[9] = Lipophilicity determination by RP-HPLC (log k, log D); format: physicochemical; settings: for log k: MeOH 72%/H2O 28%; for log D6.5: MeOH 72%/acetate buffered saline pH 6.5; for log D7.4: MeOH 72%/acetate buffered saline pH 7.4
Method in brief: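 Isocratic RP-HPLC on C18 column, 40 °C, 1.0 mL/min, UV 210 nm, dead time from KI. log k from MeOH/water 72:28; log D at pH 7.4 and 6.5 from MeOH/acetate buffered saline 72:28. k and D = (tR − tD)/tD; triplicate runs.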

[10] = test system: vancomycin-resistant E. faecalis (VRE) 368; assay: In vitro antienterococcal activity, microtitration broth MIC; format: cell-based, Enterococcus faecalis
[11] = test system: Mycobacterium marinum CAMP 5644; assay: In vitro antimycobacterial activity, broth dilution MIC; format: cell-based; settings: CAMP5644, 504 h
[12] = 24 h, MRSA 63718, read-out: log(1/MIC [M]) MRSA1 (converted)
[13] = MRSA 63718, 24 h, read-out: MIC MRSA1
[14] = 24 h, MRSA SA 630, read-out: log(1/MIC [M]) MRSA2 (converted)
[15] = MRSA SA 630, 24 h, read-out: MIC MRSA2
[16] = ATCC29213, 24 h, S. aureus ATCC 29213, read-out: log(1/MIC [M]) SA (converted)
[17] = ATCC29213, S. aureus ATCC 29213, 24 h, read-out: MIC SA
[18] = read-out: log(1/MIC [M]) VRE1 (converted)
[19] = 10% fetal bovine serum, 24 h, read-out: IC50 THP-1 10% FSB
[20] = 10% fetal bovine serum, read-out: log(1/IC50 [M]) THP-1 10% FSB (converted)
[21] = serum-free medium, 24 h, read-out: IC50 THP-1 SFM
[22] = serum-free medium, read-out: log(1/IC50 [M]) THP-1 SFM (converted)
[23] = 24 h, read-out: IC50 SW982 10% FSB
[24] = read-out: log(1/IC50 [M]) SW982 10% FSB (converted)
[25] = 24 h, MRSA SA 3202, read-out: log(1/MIC [M]) MRSA3 (converted)
[26] = MRSA SA 3202, 24 h, read-out: MIC MRSA3
[27] = 24 h, VRE 368, read-out: log(1/MIC [M]) VRE2 (converted)
[28] = VRE 368, 24 h, read-out: MIC VRE2
[29] = M. marinum CAMP 5644, 21 days, read-out: MIC MM
[30] = M. marinum CAMP 5644, read-out: log(1/MIC [M]) MM (converted)

| MIC [1, 12] | MIC [1, 13] | MIC [3, 14] | MIC [3, 15] | MIC [4, 16] | MIC [4, 17] | MIC ([5]; read-out: MIC VRE1) | MIC [5, 18] | IC50 [6, 19] | IC50 [6, 20] | IC50 [6, 21] | IC50 [6, 22] | IC50 [7, 23] | IC50 [7, 24] | MIC [8, 25] | MIC [8, 26] | log k [9] | log D6.5 [9] | SMILES | antimicrobial activity (in words) [2] | activity against S. aureus and MRSA isolates (in words) [4] | further results |
| --- | --- | --- | --- | --- | --- | --- | --- | --- | --- | --- | --- | --- | --- | --- | --- | --- | --- | --- | --- | --- | --- |
| 3.16e-07 M (≈ 0.125 µg/mL) | 3.18e-07 M (≈ 0.125 µg/mL) | 3.16e-07 M (≈ 0.125 µg/mL) | 3.18e-07 M (≈ 0.125 µg/mL) | 3.16e-07 M (≈ 0.125 µg/mL) | 3.18e-07 M (≈ 0.125 µg/mL) | 0.00065 M (≈ 256 µg/mL) | 0.000646 M (≈ 254 µg/mL) | > 1e-05 M | > 1e-05 M | 1e-06 ± 1.1e-06 M | 1e-06 M | > 1e-05 M | > 1e-05 M | 6.31e-07 M (≈ 0.248 µg/mL) | 6.35e-07 M (≈ 0.25 µg/mL) | 1.3064 | 1.2925 | O=C(/C=C/c1ccc(Cl)cc1)Nc1cc(C(F)(F)F)cc(C(F)(F)F)c1 [1q, (2E)-N-[3,5-bis(Trifluoromethyl)phenyl]-3-(4-chlorophenyl)prop-2-enamide] | showed activity | submicromolar | log D7.4 [9]: 1.2980; MIC [10, 27]: 0.000324 M (≈ 127 µg/mL); MIC [10, 28]: 0.000325 M (≈ 128 µg/mL); MIC [11, 29]: > 0.00065 M; MIC [11, 30]: > 0.000646 M |
| 1.35e-07 M (≈ 0.0578 µg/mL) | 1.36e-07 M (≈ 0.0582 µg/mL) | 1.35e-07 M (≈ 0.0578 µg/mL) | 1.36e-07 M (≈ 0.0582 µg/mL) | 1.32e-06 M (≈ 0.564 µg/mL) | 2.92e-07 M (≈ 0.125 µg/mL) | 9.34e-06 M (≈ 4 µg/mL) | 9.33e-06 M (≈ 4 µg/mL) | > 1e-05 M | > 1e-05 M | 5e-07 ± 1e-06 M | 1e-06 M | > 1e-05 M | > 1e-05 M | 2.95e-07 M (≈ 0.126 µg/mL) | 2.92e-07 M (≈ 0.125 µg/mL) | 1.4731 | 1.4967 | O=C(/C=C/c1ccc(Cl)c(Cl)c1)Nc1cc(C(F)(F)F)cc(C(F)(F)F)c1 [2q, (2E)-N-[3,5-bis(Trifluoromethyl)phenyl]-3-(3,4-dichlorophenyl)prop-2-enamide] | active | submicromolar | log D7.4 [9]: 1.4717; MIC [10, 27]: 1.86e-05 M (≈ 7.97 µg/mL); MIC [10, 28]: 1.87e-05 M (≈ 8 µg/mL); MIC [11, 29]: 2.92e-07 M (≈ 0.125 µg/mL); MIC [11, 30]: 2.63e-06 M (≈ 1.13 µg/mL) |
